Assay [1] deals with SPR-c-kit2 (DNA, G4) GGGCGGGCGCGAGGGAGGGG
The assay is described as follows: SPR. As to conditions: 100 mM K+ (KCl); 50 mM Tris-HCl, pH 7.2, 25 °C; Langmuir kinetic fit.

Assay [2] has as its system c-kit2-Ap4 (DNA, G4, 2-aminopurine at 4 (replaces C)) GGGCGGGCGCGAGGGAGGGG
The assay is described as follows: 2-aminopurine fluorescence titration. As to conditions: 100 mM K+ (KCl); 10 mM Tris-HCl, pH 7.2; 1 μM DNA, 0-10 μM compound.

Assay [3] has as its system c-kit2-Ap16 (DNA, G4, 2-aminopurine at 16) GGGCGGGCGCGAGGGAGGGG
Kind of assay: 2-aminopurine fluorescence titration. Conditions: 100 mM K+ (KCl); 10 mM Tris-HCl, pH 7.2; 1 μM DNA, 0-10 μM compound.

Assay [4] relates to HRAS-Ap7 (DNA, G4, 2-aminopurine at 7 (replaces T)) TCGGGTTGCGGGCGCAGGGCACGGGCG
The assay is described as follows: 2-aminopurine fluorescence titration. As to conditions: 100 mM K+ (KCl); 10 mM Tris-HCl, pH 7.2; 1 μM DNA, 0-10 μM compound.

Assay [5] deals with HRAS-Ap21 (DNA, G4, 2-aminopurine at 21) TCGGGTTGCGGGCGCAGGGCACGGGCG
Kind of assay: 2-aminopurine fluorescence titration. Conditions: 100 mM K+ (KCl); 10 mM Tris-HCl, pH 7.2; 1 μM DNA, 0-10 μM compound.

Assay [6] concerns KRAS (DNA, G4) AGGGCGGTGTGGGAAGAGGGAAGAGGGGGAGG
Kind of assay: fluorescence titration. As to conditions: 100 mM K+ (KCl); 10 mM Tris-HCl, pH 7.2; strong light-up of 15 at 525 nm.

The subject of assay [7] is Pu22 (DNA, G4) TGAGGGTGGGTAGGGTGGGTAA
Kind of assay: fluorescence titration. As to conditions: 100 mM K+ (KCl); 10 mM Tris-HCl, pH 7.2; strong light-up of 15 at 525 nm.

Assay [8] concerns bcl-2 (DNA, G4) GGGCGGGCGCGGGAGGAAGGGGGCGGG
Kind of assay: fluorescence titration. As to conditions: 100 mM K+ (KCl); 10 mM Tris-HCl, pH 7.2; strong light-up of 15 at 525 nm.

In assay [9] the test system is c-kit2 (DNA, G4) GGGCGGGCGCGAGGGAGGGG
The assay is described as follows: fluorescence titration. As to conditions: 100 mM K+ (KCl); 10 mM Tris-HCl, pH 7.2; strong light-up of 15 at 525 nm.

The test system of assay [10] is HT-L2H (DNA, G4) TTGGGTTAGGGTTAGGGTTAGGGA
Kind of assay: fluorescence titration. Conditions: 100 mM K+ (KCl); 10 mM Tris-HCl, pH 7.2; much weaker light-up, up to 5 μM DNA.

In assay [11] the test system is htg22 (DNA, G4) AGGGTTAGGGTTAGGGTTAGGG
The assay is described as follows: fluorescence titration. Conditions: 100 mM K+ (KCl); 10 mM Tris-HCl, pH 7.2; much weaker light-up, up to 5 μM DNA.

Assay [12] relates to HRAS (DNA, G4) TCGGGTTGCGGGCGCAGGGCACGGGCG
The assay is described as follows: fluorescence titration. As to conditions: 100 mM K+ (KCl); 10 mM Tris-HCl, pH 7.2; much weaker light-up, up to 5 μM DNA.

Assay [13] concerns TBA (DNA, G4) GGTTGGTGTGGTTGG
Kind of assay: fluorescence titration. Conditions: 100 mM K+ (KCl); 10 mM Tris-HCl, pH 7.2; much weaker light-up, up to 5 μM DNA.

Assay [14] has as its system c-kit3 (DNA, G4) GGCGAGGAGGGGCGTGGCCGGC
Kind of assay: fluorescence titration. Conditions: 100 mM K+ (KCl); 10 mM Tris-HCl, pH 7.2; much weaker light-up, up to 5 μM DNA.

The test system of assay [15] is c-kit2-Ap12 (DNA, G4, 2-aminopurine at 12) GGGCGGGCGCGAGGGAGGGG
The assay is described as follows: 2-aminopurine fluorescence titration. Conditions: 100 mM K+ (KCl); 10 mM Tris-HCl, pH 7.2; 1 μM DNA, 0-10 μM compound.

Assay [16] deals with HRAS-Ap16 (DNA, G4, 2-aminopurine at 16) TCGGGTTGCGGGCGCAGGGCACGGGCG
The assay is described as follows: 2-aminopurine fluorescence titration. Conditions: 100 mM K+ (KCl); 10 mM Tris-HCl, pH 7.2; 1 μM DNA, 0-10 μM compound.

In [1], `CCN(CC)CCCOc1ccc(-c2nc(-c3cc4ccc(N(CC)CC)cc4oc3=O)[nH]c2-c2ccc(OCc3cn(CCCN4CCN(C)CC4)nn3)cc2)cc1` showed a KD of 2.0 µM. For the same molecule, the binding result in [2], in [3], in assay [4] and in assay [5] was “yes” throughout.

On to `CCN(CC)CCCOc1ccc(-c2nc(-c3cc4ccc(N(CC)CC)cc4oc3=O)[nH]c2-c2ccc(OCc3cn(CCN4CCOCC4)nn3)cc2)cc1`, for which the KD in assay [1] is 4.8 µM.

The molecule `CCN(CC)CCCOc1ccc(-c2nc(-c3cc4ccc(N(CC)CC)cc4oc3=O)[nH]c2-c2ccc(OCc3cn(CCCO)nn3)cc2)cc1` yielded a KD in [1] of 3.1 µM.

In [1], `CCN(CC)CCCOc1ccc(-c2nc(-c3cc4ccc(N(CC)CC)cc4oc3=O)[nH]c2-c2ccc(OCc3cn(CCCN(C)C)nn3)cc2)cc1` returned a KD of 4.3 µM.

As for `CCN(CC)CCCOc1ccc(-c2nc(-c3cc4ccc(N(CC)CC)cc4oc3=O)[nH]c2-c2ccc(OCc3cn(CCN4CCCCC4)nn3)cc2)cc1`, the dissociation constant (KD) in [1] came to 1.8 µM.

`C#CCOc1ccc(-c2[nH]c(-c3cc4ccc(N(CC)CC)cc4oc3=O)nc2-c2ccc(OCCCN(CC)CC)cc2)cc1` registered a KD in [1] of 13.9 µM.

In turn, `CCN(CC)CCCOc1ccc(-c2nc(-c3cc4ccc(N(CC)CC)cc4oc3=O)[nH]c2-c2ccc(OCc3cn(CCN(C)C)nn3)cc2)cc1` yielded a KD in assay [1] of 2.7 µM.

In [1], `CCN(CC)CCCOc1ccc(-c2nc(-c3cc4ccc(N(CC)CC)cc4oc3=O)[nH]c2-c2ccc(OCc3cn(CCC(=O)O)nn3)cc2)cc1` registered a KD of 6.1 µM. Besides, the binding entry is listed as “yes” in [6]; “yes” in [7]; “yes” in [8]; “yes” in [9]; “weak” in assay [10]; “weak” in assay [11]. Moreover, the binding entry in assay [12] was “weak”; in [13] it was “weak”; in assay [14], “weak”; in [2], “yes”; in assay [15], “yes”; in assay [3] it was “yes”. In addition, the binding result in assay [4], in assay [16] and in [5] was “weak” throughout.

For orientation: KD means the free concentration of one partner at which half of the binding sites on the other are occupied at equilibrium, for simple one-to-one binding.

Source of the values: paper PMC4658637 (2015).
